Patent US12590106B2, “Spiromacrocyclic orexin 2 receptor agonists” (H. Lundbeck A/S, priority 2023, dated 2026)

Biological target: T1, human Ox2R (Homo sapiens, UniProt O43614)
T1 construct: The gene encoding hOx2R was subcloned into the expression plasmid pcDNA5/FRT/TO; expressed in transfected cells; host or cells: CHO Flp-In cells (pcDNA5/FRT/TO with pOG44 Flp recombinase vector, hygromycin B selection)
T1 sequence (O43614 1-444): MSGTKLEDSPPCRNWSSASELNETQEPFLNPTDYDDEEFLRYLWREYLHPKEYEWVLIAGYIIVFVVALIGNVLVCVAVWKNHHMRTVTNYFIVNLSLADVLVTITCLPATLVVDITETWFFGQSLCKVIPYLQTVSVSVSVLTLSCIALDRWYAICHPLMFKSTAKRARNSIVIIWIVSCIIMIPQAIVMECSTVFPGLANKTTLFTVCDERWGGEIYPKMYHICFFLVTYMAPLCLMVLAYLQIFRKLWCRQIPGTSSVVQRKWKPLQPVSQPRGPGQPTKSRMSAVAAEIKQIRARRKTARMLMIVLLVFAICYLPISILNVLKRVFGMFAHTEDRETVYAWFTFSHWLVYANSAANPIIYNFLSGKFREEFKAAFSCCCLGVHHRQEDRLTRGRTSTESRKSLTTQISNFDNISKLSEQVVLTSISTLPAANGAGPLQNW
Test: Measurement of OX2R agonist activity (cell-based calcium release assay)
Settings: hOx2R-CHO Flp-In cells, n≥2 tests; for EC50: intracellular calcium, read-out: EC50; for Emax: normalized to assay buffer (0%) and 10 μM Danavorexton (100%), read-out: Emax (%)
Source text: Measurement of OX2R Agonist Activity
The Ox2R has a broad signaling profile and couple to a range of different Gα-proteins. The cell-based calcium release assay is primarily assessing signaling through the Gαq signaling pathway, which promotes calcium mobilization via inositol triphosphate production upon activation of Ox2R.
A CHO Flp-In cell-line stably expressing the human Ox2R (hOx2R-CHO Flp-In) was established as follows: The gene encoding hOx2R was subcloned into the expression plasmid pcDNA5/FRT/TO and then transfected into CHO Flp-In cells together with the Flp recombinase vector, pOG44. Cells were cultured in growth medium: Ham's F12 (Gibco), 10% fetal bovine serum (Gibco) and 100 U/mL penicillin-streptomycin (Gibco) supplemented with hygromycin B (Thermo Fisher Scientific) as selection marker at 37° C. in the presence of 5% CO2.
To prepare the hOx2R-CHO FlpIn cells for calcium release assay, the cells were suspended in growth medium and seeded in black, clear-bottomed 384-well plates (Corning) at 10,000 cells/well. The plated cells were grown overnight at 37° C. and 5% CO2. The following day, the media was removed, and the cells were incubated with assay buffer (HBSS with 20 mM HEPES, pH 7.4) containing 2.5 mM probenecid (Thermo Fisher Scientific), 10 mM CaCl2, 0.1% pluronic F68 (Gibco) and 1× calcium-4 dye (Molecular Devices) for 1 h at 37° C. and 5% CO2. After incubation, cells were allowed to equilibrate at room temperature for 15 minutes and then loaded into FDSS7000Ex system (Hamamatsu Photonics) together with a plate containing test compounds serially diluted in assay buffer. Cells were stimulated with test compounds (online injection) and the agonist activity was determined as an increase in intracellular calcium concentration measured from the ratio of fluorescence emission at 542 nm by excitation at 480 nm. The agonist response for each applied concentration was assessed as the ratio: maximum fluorescence/average pre-stimulated fluorescence and was normalized to responses from assay buffer alone (0% response) and 10 μM Danavorexton (100% response). EC50 and Emax values were calculated from concentration-response curves by using Genedata Screener software.

Row | Structure (SMILES) | EC50 [nM] | Emax [%]
1 | CN(C)S(=O)(=O)N[C@H]1CC[C@@]2(Cc3ccc(F)c(c3)-c3ccccc3OCc3coc2n3)C1 [Example 13, (3′S,14R)-3′-(dimethylsulfamoylamino)-19-fluoro-spiro[8,12-dioxa-21-azatetracyclo[14.3.1.110,13.02,7]henicosa-1(19),2,4,6,10,13(21),16(20),17-octaene-14,1′-cyclopentane]] | 0.28 | 95
2 | CS(=O)(=O)N[C@H]1CC[C@@]2(Cc3ccc(F)c(c3)-c3ccc(F)c(F)c3OCc3coc2n3)C1 [Example 14, N-[(1′S,14R)-5,6,19-trifluorospiro[8,12-dioxa-21-azatetracyclo[14.3.1.110,13.02,7]henicosa-1(19),2,4,6,10,13(21),16(20),17-octaene-14,3′-cyclopentane]-1′-yl]methanesulfonamide] | 0.62 | 97
3 | CS(=O)(=O)N[C@H]1CC[C@@]2(Cc3ccc(F)c(c3)-c3ccc(F)cc3OCc3coc2n3)C1 [Example 15, N-[(1′S,14R)-5,19-difluorospiro[8,12-dioxa-21-azatetracyclo[14.3.1.110,13.02,7]henicosa-1(19),2,4,6,10,13(21),16(20),17-octaene-14,3′-cyclopentane]-1′-yl]methanesulfonamide] | 8.1 | 98
4 | CS(=O)(=O)N[C@H]1CC[C@@]2(Cc3cc(ccc3F)-c3cccc(F)c3OCc3coc2n3)C1 [Example 17, N-[(1′S,14R)-6,17-difluorospiro[8,12-dioxa-21-azatetracyclo[14.3.1.110,13.02,7]henicosa-1(19),2,4,6,10,13(21),16(20),17-octaene-14,3′-cyclopentane]-1′-yl]methanesulfonamide] | 0.22 | 96
5 | CS(=O)(=O)N[C@H]1CC[C@@]2(Cc3cc(c(F)cc3F)-c3ccccc3OCc3coc2n3)C1 [Example 18, N-[(1′S,14R)-17,19-difluorospiro[8,12-dioxa-21-azatetracyclo[14.3.1.110,13.02,7]henicosa-1(19),2,4,6,10,13(21),16(20),17-octaene-14,3′-cyclopentane]-1′-yl]methanesulfonamide] | 0.19 | 95
6 | CS(=O)(=O)N[C@H]1CC[C@@]2(Cc3ccnc(c3)-c3cccc(F)c3OCc3coc2n3)C1 [Example 19, N-[(1′S,14R)-6-fluorospiro[8,12-dioxa-19,21-diazatetracyclo[14.3.1.110,13.02,7]henicosa-1(19),2,4,6,10,13(21),16(20),17-octaene-14,3′-cyclopentane]-1′-yl]methanesulfonamide] | 35 | 100
7 | CS(=O)(=O)N[C@H]1CC[C@@]2(Cc3ccc(F)c(c3)-c3cccc(Cl)c3OCc3coc2n3)C1 [Example 20, N-[(1′S,14R)-6-chloro-19-fluoro-spiro[8,12-dioxa-21-azatetracyclo[14.3.1.110,13.02,7]henicosa-1(19),2,4,6,10,13(21),16(20),17-octaene-14,3′-cyclopentane]-1′-yl]methanesulfonamide] | 0.33 | 97
8 | Cc1ccc2cc1-c1cccc(F)c1OCc1coc(n1)[C@]1(CC[C@H](NS(C)(=O)=O)C1)C2 [Example 22, N-[(1′S,14R)-6-fluoro-19-methyl-spiro[8,12-dioxa-21-azatetracyclo[14.3.1.110,13.02,7]henicosa-1(19),2,4,6,10,13(21),16(20),17-octaene-14,3′-cyclopentane]-1′-yl]methanesulfonamide] | 0.82 | 96
9 | CS(=O)(=O)N[C@H]1CC[C@@]2(Cc3ccc(C(F)(F)F)c(c3)-c3cccc(F)c3OCc3coc2n3)C1 [Example 23, N-[(1′S,14R)-6-fluoro-19-(trifluoromethyl)spiro[8,12-dioxa-21-azatetracyclo[14.3.1.110,13.02,7]henicosa-1(19),2,4,6,10,13(21),16(20),17-octaene-14,3′-cyclopentane]-1′-yl]methanesulfonamide] | 1.3 | 98
